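Values below derive from 48-hour exposures of cells grown in 96-well plates, with endpoints linearly interpolated between the two concentrations bracketing the appropriate inhibition level. At the GI50, growth is halved. TGI: concentration producing complete growth inhibition.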
Legend:
Assay in all cases: NCI-60 cell line screen, 48 h
CAKI-1 renal = tested on: CAKI-1 renal
MOLT-4 leukemia = tested on: MOLT-4 leukemia
NCI/ADR-RES ovarian = tested on: NCI/ADR-RES ovarian
HT29 colon = tested on: HT29 colon
MDA-MB-231 breast = tested on: MDA-MB-231 breast
IGROV1 ovarian = tested on: IGROV1 ovarian
A549 NSCLC = tested on: A549 NSCLC
786-0 renal = tested on: 786-0 renal
SF-295 CNS = tested on: SF-295 CNS
SW-620 colon = tested on: SW-620 colon

| SMILES | GI50 (CAKI-1 renal) | TGI (CAKI-1 renal) | GI50 (MOLT-4 leukemia) | TGI (MOLT-4 leukemia) | GI50 (NCI/ADR-RES ovarian) | TGI (NCI/ADR-RES ovarian) | GI50 (HT29 colon) | TGI (HT29 colon) | GI50 (MDA-MB-231 breast) | TGI (MDA-MB-231 breast) | GI50 (IGROV1 ovarian) | TGI (IGROV1 ovarian) | GI50 (A549 NSCLC) | TGI (A549 NSCLC) | GI50 (786-0 renal) | TGI (786-0 renal) | GI50 (SF-295 CNS) | TGI (SF-295 CNS) | GI50 (SW-620 colon) | TGI (SW-620 colon) |
| --- | --- | --- | --- | --- | --- | --- | --- | --- | --- | --- | --- | --- | --- | --- | --- | --- | --- | --- | --- | --- |
| S=C(Nc1ccccc1)c1ccccn1 | 40.3 µM | > 100 µM | 42.1 µM | > 100 µM | 52.1 µM | > 100 µM | 50.1 µM | > 100 µM | 51.2 µM | > 100 µM | 42.4 µM | > 100 µM | > 100 µM | > 100 µM | > 100 µM | > 100 µM | 32.8 µM | > 100 µM | 59.4 µM | > 100 µM |
| CC(=O)OCC(=O)[C@@]1(O)[C@H](C)C[C@H]2[C@@H]3C=C(C)C4=Cc5c(cnn5-c5ccc(F)cc5)C[C@]4(C)[C@H]3[C@@H](O)C[C@@]21C | 2.57 µM | 10 µM | 1.94 µM | 6.76 µM | 1.9 µM | 6.82 µM | 1.32 µM | 3.07 µM | 2.56 µM | 6.43 µM | 2.85 µM | 12.8 µM | 1.45 µM | 9.96 µM | 1.06 µM | 2.55 µM | 0.982 µM | 5.13 µM | 1.8 µM | 3.41 µM |
| COC(=O)c1c2c(c(C)[n+]([O-])c1C)C(=O)C=C(NCc1ccc(Cl)cc1)C2=O | 0.109 µM | 2.18 µM | 0.514 µM | 2.92 µM | 0.31 µM | 3.22 µM | 0.271 µM | > 26.6 µM | 0.286 µM | 3.62 µM | 0.346 µM | 1.82 µM | 0.543 µM | 3.05 µM | 1.32 µM | 3.57 µM | 0.362 µM | 1.58 µM | 0.143 µM | 1.37 µM |
